# Test results taken from US20180051017A1, “AGENT FOR TREATMENT OF SCHIZOPHRENIA” (Sumitomo Dainippon Pharma Co., Ltd., priority 2002, published 2018).
# Structures can show the parent of a compound that is named as a salt.
# Legend:
# [1] = tested on: patients with schizophrenia in the acute exacerbation phase; assay: First stage phase II clinical trial: extrapyramidal symptom rating scales (AIMS, BAS, SAS); format: in vivo, human; conditions: for SAS (parkinsonism) score change, Average (SD) / BAS Global score (akathisia) change, Average (SD) / AIMS (dyskinesia) score change, Average (SD): n = 44-47
# Protocol: (§1) According to the procedures as shown in Table 1 as described below, the placebo-controlled double blind experiment was done on 149 patients with schizophrenia in the acute exacerbation phase at 15 facilities in USA. The efficacy and safeness were studied when SM-13496 at a dose of 40 mg or 120 mg, or a placebo was orally administered once a day for 6 weeks after placebo washout.
# As is shown in Table 7, among the adverse events, the main side effects, a relationship of which to the SM-13496 cannot be denied, was suppression, nausea, akathisia, free-floating vertigo (excluding rotatory vertigo), sleepiness, headache. The occurrence of dystonic reaction was low (less than 4%) in the SM-13496-treated groups.
# [2] = tested on: patients with schizophrenia in the acute exacerbation phase; assay: First stage phase II clinical trial, placebo-controlled double-blind: efficacy (BPRS, PANSS, CGI-S/I); format: in vivo, human
# Protocol: as §1
compound,measurement,setting,value
"O=C1[C@@H]2[C@@H]3CC[C@@H](C3)[C@@H]2C(=O)N1C[C@@H]1CCCC[C@H]1CN1CCN(c2nsc3ccccc23)CC1 [SM-13496, (1R,2S,3R,4S)-N-[(1R,2R)-2-[4-(1,2-benzoisothiazol-3-yl)-1-piperazinyl-methyl]-1-cyclohexylmethyl]-2,3-bicyclo[2.2.1]heptanedicarboximide hydrochloride]","SAS (parkinsonism) score change, Average (SD)","[1]; 40 mg orally once a day for 6 weeks, p 0.588 vs placebo",0.1 (1.08)
same,"BAS Global score (akathisia) change, Average (SD)","[1]; 40 mg orally once a day for 6 weeks, p 0.687 vs placebo",0.1 (1.04)
same,"AIMS (dyskinesia) score change, Average (SD)","[1]; 40 mg orally once a day for 6 weeks, p 0.978 vs placebo",0.7 (2.88)
same,"Changes in AIMS, BAS, SAS score between the treated groups","[1]; 40 mg, 120 mg and placebo groups",no significant difference
same,"BAS Global score (akathisia) change, Average (SD)","[1]; 120 mg orally once a day for 6 weeks, p 0.352 vs placebo",0.4 (0.94)
same,"AIMS (dyskinesia) score change, Average (SD)","[1]; 120 mg orally once a day for 6 weeks, p 0.467 vs placebo",0.2 (2.21)
same,"SAS (parkinsonism) score change, Average (SD)","[1]; 120 mg orally once a day for 6 weeks, p 0.808 vs placebo",0.1 (1.11)
same,Ratio of the patients requiring benztropine,[1]; SM-13496-treated groups,24%
same,"Reductions in BPRS, CGI-I and CGI-S scores at end of trial compared to placebo","[2]; 40 mg or 120 mg, 6 weeks after the administration",statistically significant
same,"Responder (BPRS reduction 20% or more, or CGI-I 1 or 2), Number","[2]; 40 mg orally once a day for 6 weeks, 47 subjects, p 0.002 vs placebo",26
same,"BPRS Total Score, change from before administration at end of trial (LOCF), Average (SD)","[2]; 40 mg orally once a day for 6 weeks, 47 subjects, p 0.014 vs placebo",−10.0
same,"PANSS Total Score, change from before administration at end of trial (LOCF), Average (SD)","[2]; 40 mg orally once a day for 6 weeks, 47 subjects, p 0.063 vs placebo",−14.1
same,"CGI-I at end of trial, Average (SD)","[2]; 40 mg orally once a day for 6 weeks, n = 47, p 0.013 vs placebo",3.2 (1.56)
same,Ratio of responders compared to placebo,[2]; 40 mg- or 120 mg-treated group,statistically significant difference
same,"BPRS Total Score, change from before administration at end of trial (LOCF), Average (SD)","[2]; 120 mg orally once a day for 6 weeks, 44 subjects, p 0.003 vs placebo",−11.3 (8.89)
same,"Responder (BPRS reduction 20% or more, or CGI-I 1 or 2), Number","[2]; 120 mg orally once a day for 6 weeks, 44 subjects, p 0.007 vs placebo",22
same,"PANSS Total Score, change from before administration at end of trial (LOCF), Average (SD)","[2]; 120 mg orally once a day for 6 weeks, 44 subjects, p 0.010 vs placebo",−17.4 (15.70)
same,"CGI-I at end of trial, Average (SD)","[2]; 120 mg orally once a day for 6 weeks, n = 42, p 0.005 vs placebo",3.0 (1.29)
same,Reduction in PANSS score at end of experiment compared to placebo,"[2]; 120 mg, 6 weeks",statistically significant
same,BPRS total score (LOCF) change with time compared to placebo (FIG. 1),"[2]; SM-13496-treated groups, at 2 weeks or later, p<0.05",statistically significantly reduced
